Test system: 953936-095-R-J2-PDC spheroids with HUVEC/MSC, viability
Experiment: Anticancer human tumor 953936-095-R-J2-PDC patient-derived cervical squamous cell carcinoma cell line growth inhibition [PI3K]
Conditions: for IC50: curve of first compound; for viability, T/C: stronger effect = lower value
Outline: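 Tumor cells were combined with HUVEC and MSCs into spheroids, then dosed with PI3K-inhibitor combinations over half-log ranges capped near clinical Cmax or 10 microM.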

[1] = second compound 0.0316 µM, first compound 0.0316 µM
[2] = second compound 0.0316 µM, first compound 0.1 µM
[3] = second compound 0.0316 µM, first compound 0.316 µM
[4] = second compound 0.0316 µM, first compound 1 µM
[5] = second compound 0.0316 µM, first compound 3.16 µM
[6] = second compound 0.0316 µM, first compound 10 µM
[7] = second compound 0.1 µM, first compound 0.0316 µM
[8] = second compound 0.1 µM, first compound 0.1 µM
[9] = second compound 0.1 µM, first compound 0.316 µM
[10] = second compound 0.1 µM, first compound 1 µM
[11] = second compound 0.1 µM, first compound 3.16 µM
[12] = second compound 0.1 µM, first compound 10 µM
[13] = second compound 0.316 µM, first compound 0.0316 µM
[14] = second compound 0.316 µM, first compound 0.1 µM
[15] = second compound 0.316 µM, first compound 0.316 µM
[16] = second compound 0.316 µM, first compound 1 µM
[17] = second compound 0.316 µM, first compound 3.16 µM
[18] = second compound 0.316 µM, first compound 10 µM
[19] = second compound 1 µM, first compound 0.0316 µM
[20] = second compound 1 µM, first compound 0.1 µM
[21] = second compound 1 µM, first compound 0.316 µM
[22] = second compound 1 µM, first compound 1 µM
[23] = second compound 1 µM, first compound 3.16 µM
[24] = second compound 1 µM, first compound 10 µM
[25] = second compound 3.16 µM, first compound 0.0316 µM
[26] = second compound 3.16 µM, first compound 0.1 µM
[27] = second compound 3.16 µM, first compound 0.316 µM
[28] = second compound 3.16 µM, first compound 1 µM
[29] = second compound 3.16 µM, first compound 3.16 µM
[30] = second compound 3.16 µM, first compound 10 µM
[31] = second compound 10 µM, first compound 0.0316 µM
[32] = second compound 10 µM, first compound 0.1 µM
[33] = second compound 10 µM, first compound 0.316 µM
[34] = second compound 10 µM, first compound 1 µM
[35] = second compound 10 µM, first compound 3.16 µM
[36] = second compound 10 µM, first compound 10 µM
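Further: spheroids exposed to compounds for seven days before read-out.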

C#Cc1c(F)ccc2cc(O)cc(-c3ncc4c(N5CC6CCC(C5)N6)nc(OCC56CCCN5CC(F)C6)nc4c3F)c12 (stereo not drawn) + CC(Nc1ncnc2nc[nH]c12)c1cc2cccc(Cl)c2c(=O)n1-c1ccccc1
IC50 (second compound 0.0316 µM): > 10 µM
IC50 (second compound 0.1 µM): > 10 µM
IC50 (second compound 0.316 µM): > 10 µM
IC50 (second compound 1 µM): > 10 µM
IC50 (second compound 3.16 µM): 6.34 µM
IC50 (second compound 10 µM): 1.8 µM
viability, T/C [1]: 90.6%
viability, T/C [2]: 91.9%
viability, T/C [3]: 105%
viability, T/C [4]: 97.1%
viability, T/C [5]: 91.3%
viability, T/C [6]: 67.2%
viability, T/C [7]: 95.2%
viability, T/C [8]: 98.3%
viability, T/C [9]: 99.9%
viability, T/C [10]: 104%
viability, T/C [11]: 80.2%
viability, T/C [12]: 70.8%
viability, T/C [13]: 94%
viability, T/C [14]: 95.2%
viability, T/C [15]: 90.5%
viability, T/C [16]: 82.2%
viability, T/C [17]: 75.2%
viability, T/C [18]: 67.8%
viability, T/C [19]: 96.2%
viability, T/C [20]: 83.5%
viability, T/C [21]: 84.7%
viability, T/C [22]: 86.9%
viability, T/C [23]: 80%
viability, T/C [24]: 57.2%
viability, T/C [25]: 87.9%
viability, T/C [26]: 79.5%
viability, T/C [27]: 76%
viability, T/C [28]: 74.3%
viability, T/C [29]: 60.3%
viability, T/C [30]: 42.6%
viability, T/C [31]: 55.8%
viability, T/C [32]: 65.4%
viability, T/C [33]: 51.7%
viability, T/C [34]: 57.3%
viability, T/C [35]: 43.3%
viability, T/C [36]: 31.2%

C=CC(=O)N1CCN(c2nc(=O)n(-c3c(C)ccnc3C(C)C)c3nc(-c4c(O)cccc4F)c(F)cc23)C(C)C1 (stereo not drawn) + CC(Nc1ncnc2nc[nH]c12)c1cc2cccc(Cl)c2c(=O)n1-c1ccccc1
IC50 (second compound 0.0316 µM): > 10 µM
IC50 (second compound 0.1 µM): > 10 µM
IC50 (second compound 0.316 µM): > 10 µM
IC50 (second compound 1 µM): > 10 µM
IC50 (second compound 3.16 µM): > 10 µM
IC50 (second compound 10 µM): > 10 µM
viability, T/C [1]: 92.8%
viability, T/C [2]: 112%
viability, T/C [3]: 121%
viability, T/C [4]: 119%
viability, T/C [5]: 118%
viability, T/C [6]: 129%
viability, T/C [7]: 104%
viability, T/C [8]: 108%
viability, T/C [9]: 110%
viability, T/C [10]: 122%
viability, T/C [11]: 132%
viability, T/C [12]: 111%
viability, T/C [13]: 94.2%
viability, T/C [14]: 106%
viability, T/C [15]: 111%
viability, T/C [16]: 118%
viability, T/C [17]: 113%
viability, T/C [18]: 128%
viability, T/C [19]: 91.1%
viability, T/C [20]: 97.7%
viability, T/C [21]: 99%
viability, T/C [22]: 118%
viability, T/C [23]: 110%
viability, T/C [24]: 113%
viability, T/C [25]: 85%
viability, T/C [26]: 79.2%
viability, T/C [27]: 79.7%
viability, T/C [28]: 88.1%
viability, T/C [29]: 107%
viability, T/C [30]: 105%
viability, T/C [31]: 63.7%
viability, T/C [32]: 67%
viability, T/C [33]: 62.3%
viability, T/C [34]: 82.6%
viability, T/C [35]: 85.3%
viability, T/C [36]: 81%

CC(Cn1ccc(-c2ccc(C#N)c(Cl)c2)n1)NC(=O)c1cc(C(C)O)[nH]n1 (stereo not drawn) + CC(Nc1ncnc2nc[nH]c12)c1cc2cccc(Cl)c2c(=O)n1-c1ccccc1
IC50 (second compound 0.0316 µM): > 10 µM
IC50 (second compound 0.1 µM): > 10 µM
IC50 (second compound 0.316 µM): > 10 µM
IC50 (second compound 1 µM): > 10 µM
IC50 (second compound 3.16 µM): > 10 µM
IC50 (second compound 10 µM): > 10 µM
viability, T/C [1]: 97.5%
viability, T/C [2]: 100%
viability, T/C [3]: 101%
viability, T/C [4]: 91.1%
viability, T/C [5]: 108%
viability, T/C [6]: 96%
viability, T/C [7]: 98.4%
viability, T/C [8]: 106%
viability, T/C [9]: 93.6%
viability, T/C [10]: 109%
viability, T/C [11]: 101%
viability, T/C [12]: 93.5%
viability, T/C [13]: 107%
viability, T/C [14]: 85.7%
viability, T/C [15]: 90.8%
viability, T/C [16]: 88.6%
viability, T/C [17]: 92.8%
viability, T/C [18]: 93.4%
viability, T/C [19]: 98.2%
viability, T/C [20]: 91.7%
viability, T/C [21]: 91.7%
viability, T/C [22]: 94.4%
viability, T/C [23]: 97.7%
viability, T/C [24]: 90.1%
viability, T/C [25]: 83.7%
viability, T/C [26]: 73.6%
viability, T/C [27]: 72.2%
viability, T/C [28]: 75.9%
viability, T/C [29]: 79.9%
viability, T/C [30]: 70.7%
viability, T/C [31]: 55.7%
viability, T/C [32]: 56%
viability, T/C [33]: 62.8%
viability, T/C [34]: 60.5%
viability, T/C [35]: 59.3%
viability, T/C [36]: 58.8%

CC1(C)CCC(Nc2ncc(C(F)(F)F)c(-c3c[nH]c4c(P(C)(C)=O)c(C#N)ccc34)n2)CN1 (stereo not drawn) + CC(Nc1ncnc2nc[nH]c12)c1cc2cccc(Cl)c2c(=O)n1-c1ccccc1
IC50 (second compound 0.0316 µM): 3.67 µM
IC50 (second compound 0.1 µM): 3.37 µM
IC50 (second compound 0.316 µM): 3.39 µM
IC50 (second compound 1 µM): 1.78 µM
IC50 (second compound 3.16 µM): < 0.0316 µM
IC50 (second compound 10 µM): < 0.0316 µM
viability, T/C [1]: 52.6%
viability, T/C [2]: 55.8%
viability, T/C [3]: 57.6%
viability, T/C [4]: 61.3%
viability, T/C [5]: 56.1%
viability, T/C [6]: 7.92%
viability, T/C [7]: 52.2%
viability, T/C [8]: 53.5%
viability, T/C [9]: 53.7%
viability, T/C [10]: 62.5%
viability, T/C [11]: 51.9%
viability, T/C [12]: 6.89%
viability, T/C [13]: 60.1%
viability, T/C [14]: 53.2%
viability, T/C [15]: 44.6%
viability, T/C [16]: 49.9%
viability, T/C [17]: 56.3%
viability, T/C [18]: 6.08%
viability, T/C [19]: 59.9%
viability, T/C [20]: 49.7%
viability, T/C [21]: 49.2%
viability, T/C [22]: 46.3%
viability, T/C [23]: 49.2%
viability, T/C [24]: 5.38%
viability, T/C [25]: 45.9%
viability, T/C [26]: 46.7%
viability, T/C [27]: 49.3%
viability, T/C [28]: 44.5%
viability, T/C [29]: 45.7%
viability, T/C [30]: 3.11%
viability, T/C [31]: 38%
viability, T/C [32]: 36.5%
viability, T/C [33]: 38.4%
viability, T/C [34]: 39.6%
viability, T/C [35]: 42.1%
viability, T/C [36]: 1.76%
